Measured values taken from patent US8748417B2, “Amino-pyrrolidine-azetidine diamides as monoacylglycerol lipase inhibitors” (Janssen Pharmaceutica, NV, priority 2010, dated 2014).

Experiments:
[1] = target: T1, purified wild type MGL (wt-MGLL 6H-11-313) (Homo sapiens, UniProt Q99685); assay: MGL enzyme activity assay (4MU-B cleavage), wild type MGL; type: biochemical; settings: wild type MGL 5 nM, 4MU-B 10 μM, 37° C.; read-out: MGL wild type inh IC50
T1 construct: purified wild type MGL (wt-MGLL 6H-11-313)
T1 sequence (Q99685 1-303): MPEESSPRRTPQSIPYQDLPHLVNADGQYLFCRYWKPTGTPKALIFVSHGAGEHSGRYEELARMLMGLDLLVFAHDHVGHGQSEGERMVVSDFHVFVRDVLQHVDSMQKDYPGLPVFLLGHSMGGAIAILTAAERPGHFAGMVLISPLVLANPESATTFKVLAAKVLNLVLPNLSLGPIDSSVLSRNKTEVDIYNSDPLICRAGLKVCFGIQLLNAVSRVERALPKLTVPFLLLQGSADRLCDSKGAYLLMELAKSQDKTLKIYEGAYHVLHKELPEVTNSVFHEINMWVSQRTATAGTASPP
Outline: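 Enzyme in 20 mM PIPES pH 7.0, 150 mM NaCl, 0.001% Tween 20 with 4MU-B at 10 μM final and MGL at 5 nM final; compounds 17 to 0.0003 μM final, enzyme added last. Fluorescence (ex 335/em 440 nm) followed at 37° C for 5 min; IC50 from fit of fractional activity versus inhibitor concentration.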

[2] = tested on: MGL (rat brain homogenate); assay: 2-AG accumulation assay in rat brain homogenate; type: biochemical; settings: compound 1 μM, percent of vehicle 2-AG accumulation
Outline: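 Rat brain homogenate was incubated with compound for 15 min at 37° C., after which CaCl2 was added to a final concentration of 10 mM and incubation continued for 15 min at 37° C. in 5 mL total. Reactions were stopped with 6 mL of 2:1 chloroform/methanol, and 2-AG accumulated in the organic phase was quantified by HPLC/MS.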

Row | SMILES | IC50 [1] [nM] | Rat Brain 2AG % VehCntrl (%) @1 μM [2] [%]
1 | Cc1c(C(=O)N2CC(N[C@H]3CCN(C(=O)c4nccs4)C3)C2)sc2ccc(-c3cccc(C(F)(F)F)c3)cc12 [Cpd 90, (3S)-N-[1-({3-Methyl-5-[3-(trifluoromethyl)phenyl]-1-benzothiophen-2-yl}carbonyl)azetidin-3-yl]-1-(1,3-thiazol-2-ylcarbonyl)pyrrolidin-3-amine] | < 5 | 1130
2 | O=C(c1ccc(Cc2ccc(C(F)(F)F)cc2)cc1)N1CC(N[C@H]2CCN(C(=O)c3ccccc3)C2)C1 [Cpd 77, (S)-(3-((1-Benzoylpyrrolidin-3-yl)amino)azetidin-1-yl)(4-(4-(trifluoromethyl)benzyl)phenyl)methanone] | < 5 | 506
3 | O=C(c1ccccc1)N1CC[C@H](NC2CN(C(=O)c3ccc(-c4cccc(C(F)(F)F)c4)cc3F)C2)C1 [Cpd 152, (3S)-N-(1-{[3-Fluoro-3′-(trifluoromethyl)biphenyl-4-yl]carbonyl}azetidin-3-yl)-1-(phenylcarbonyl)pyrrolidin-3-amine] | 35.2 | 404
4 | O=C(c1ccc2c(-c3ccc(F)cc3)c[nH]c2c1)N1CC(N[C@H]2CCN(C(=O)c3nccs3)C2)C1 [Cpd 189, (3S)-N-(1-{[3-(4-Fluorophenyl)-1H-indol-6-yl]carbonyl}azetidin-3-yl)-1-(1,3-thiazol-2-ylcarbonyl)pyrrolidin-3-amine] | 12.5 | 277
5 | O=C(c1ccc2c(-c3ccc(C(F)(F)F)cc3)c[nH]c2c1)N1CC(N[C@H]2CCN(C(=O)c3ccccc3)C2)C1 [Cpd 101, (3S)-1-(Phenylcarbonyl)-N-[1-({3-[4-(trifluoromethyl)phenyl]-1H-indol-6-yl}carbonyl)azetidin-3-yl]pyrrolidin-3-amine] | 44 | 141
6 | O=C(c1nccs1)N1CC[C@H](NC2CN(C(=O)c3sc4cc(-c5ccccc5)ccc4c3Cl)C2)C1 [Cpd 146, (3S)-N-{1-[(3-Chloro-6-phenyl-1-benzothiophen-2-yl)carbonyl]azetidin-3-yl}-1-(1,3-thiazol-2-ylcarbonyl)pyrrolidin-3-amine] | < 5 | 680
7 | O=C(c1ccc2c(c1)c(F)cn2-c1ccc(F)cc1)N1CC(N[C@H]2CCN(C(=O)c3cscn3)C2)C1 [Cpd 143, (3S)-N-(1-{[3-Fluoro-1-(4-fluorophenyl)-1H-indol-5-yl]carbonyl}azetidin-3-yl)-1-(1,3-thiazol-4-ylcarbonyl)pyrrolidin-3-amine] | 46.5 | 244
8 | O=C(c1ccc2c(ccn2-c2ccc(F)cc2)c1)N1CC(N[C@H]2CCN(C(=O)c3cscn3)C2)C1 [Cpd 160, (3S)-N-(1-{[1-(4-Fluorophenyl)-1H-indol-5-yl]carbonyl}azetidin-3-yl)-1-(1,3-thiazol-4-ylcarbonyl)pyrrolidin-3-amine] | 12.4 | 338
9 | O=C(c1nccs1)N1CC[C@H](NC2CN(C(=O)c3cc4ccn(-c5ccc(F)cc5)c4cc3F)C2)C1 [Cpd 212, (3S)-N-(1-{[6-Fluoro-1-(4-fluorophenyl)-1H-indol-5-yl]carbonyl}azetidin-3-yl)-1-(1,3-thiazol-2-ylcarbonyl)pyrrolidin-3-amine] | < 5 | 582
10 | O=C(c1ccc(C(O)c2ccc(C(F)(F)F)cc2)cc1)N1CC(N[C@H]2CCN(C(=O)c3ccccc3)C2)C1 (stereo partly shown) [Cpd 67] | 9.7 | 928

Further lines, with some results ahead:

Row | IC50 [1] [nM] | SMILES | Rat Brain 2AG % VehCntrl (%) @1 μM [2] [%]
11 | 10 | O=C(c1ccc(-c2ccc(C(F)(F)F)cc2)cc1)N1CC(N[C@H]2CCN(C(=O)c3nccs3)C2)C1 [Cpd 115, (3S)-1-(1,3-Thiazol-2-ylcarbonyl)-N-(1-{[4′-(trifluoromethyl)biphenyl-4-yl]carbonyl}azetidin-3-yl)pyrrolidin-3-amine] | 310
12 | < 5 | O=C(c1cscn1)N1CC[C@H](NC2CN(C(=O)c3sc4cc(-c5ccc(C(F)(F)F)cc5)ccc4c3F)C2)C1 [Cpd 178, (3S)-N-[1-({3-Fluoro-6-[4-(trifluoromethyl)phenyl]-1-benzothiophen-2-yl}carbonyl)azetidin-3-yl]-1-(1,3-thiazol-4-ylcarbonyl)pyrrolidin-3-amine] | 297
13 | 44.5 | Cn1cc(-c2ccc(C(F)(F)F)cc2)c2ccc(C(=O)N3CC(N[C@H]4CCN(C(=O)c5cscn5)C4)C3)cc21 [Cpd 165, (3S)-N-[1-({1-Methyl-3-[4-(trifluoromethyl)phenyl]-1H-indol-6-yl}carbonyl)azetidin-3-yl]-1-(1,3-thiazol-4-ylcarbonyl)pyrrolidin-3-amine] | 228
14 | 5 | O=C(c1cscn1)N1CC[C@H](NC2CN(C(=O)c3cc4ccc(-c5ccc(C(F)(F)F)cc5)cc4s3)C2)C1 [Cpd 128, (3S)-1-(1,3-Thiazol-4-ylcarbonyl)-N-[1-({6-[4-(trifluoromethyl)phenyl]-1-benzothiophen-2-yl}carbonyl)azetidin-3-yl]pyrrolidin-3-amine] | 491
15 | < 5 | O=C(c1cscn1)N1CC[C@H](NC2CN(C(=O)c3sc4ccc(-c5ccccc5)cc4c3F)C2)C1 [Cpd 172, (3S)-N-{1-[(3-Fluoro-5-phenyl-1-benzothiophen-2-yl)carbonyl]azetidin-3-yl}-1-(1,3-thiazol-4-ylcarbonyl)pyrrolidin-3-amine] | 532
16 | 6 | O=C(c1ccccc1)N1CC[C@H](NC2CN(C(=O)c3sc4ccc(-c5ccc(C(F)(F)F)cc5)cc4c3F)C2)C1 [Cpd 176, (3S)-N-[1-({3-Fluoro-5-[4-(trifluoromethyl)phenyl]-1-benzothiophen-2-yl}carbonyl)azetidin-3-yl]-1-(phenylcarbonyl)pyrrolidin-3-amine] | 832
17 | < 5 | O=C(c1nccs1)N1CC[C@H](NC2CN(C(=O)c3sc4cc(-c5cccc(C(F)(F)F)c5)ccc4c3Cl)C2)C1 [Cpd 148, (3S)-N-[1-({3-Chloro-6-[3-(trifluoromethyl)phenyl]-1-benzothiophen-2-yl}carbonyl)azetidin-3-yl]-1-(1,3-thiazol-2-ylcarbonyl)pyrrolidin-3-amine] | 942
18 | 22.2 | O=C(c1ccc2c(-c3ccc(C(F)(F)F)cc3)c[nH]c2c1)N1CC(N[C@H]2CCN(C(=O)c3nccs3)C2)C1 [Cpd 104, (3S)-1-(1,3-Thiazol-2-ylcarbonyl)-N-[1-({3-[4-(trifluoromethyl)phenyl]-1H-indol-6-yl}carbonyl)azetidin-3-yl]pyrrolidin-3-amine] | 195
19 | 10.7 | Cn1cc(-c2ccc(C(F)(F)F)cc2)c2ccc(C(=O)N3CC(N[C@H]4CCN(C(=O)c5nccs5)C4)C3)cc21 [Cpd 163, (3S)-N-[1-({1-Methyl-3-[4-(trifluoromethyl)phenyl]-1H-indol-6-yl}carbonyl)azetidin-3-yl]-1-(1,3-thiazol-2-ylcarbonyl)pyrrolidin-3-amine] | 274
20 | 96.4 | O=C(c1ccc(-c2ccc(C(F)(F)F)cc2)cc1)N1CC(N[C@H]2CCN(C(=O)c3cscn3)C2)C1 [Cpd 145, (3S)-1-(1,3-Thiazol-4-ylcarbonyl)-N-(1-{[4′-(trifluoromethyl)biphenyl-4-yl]carbonyl}azetidin-3-yl)pyrrolidin-3-amine] | 193
